According to patent US20130072470A1 (ABBVIE INC., priority 2011, published 2013):

What follows are compounds tested against T1, Jak3 enzyme (aa 811-1103) (Homo sapiens, UniProt P52333) (assay: In vitro Jak3 kinase activity measured by time-resolved fluorescence resonance energy transfer (trFRET)). Settings: ATP 0.001 mM, Table B.
T1 construct: Jak3 enzyme (aa 811-1103); expressed in SF9 cells as a GST fusion; GST; made in house; host or cells: SF9 insect cells
Assay type: biochemical
Procedure: In Vitro Jak3 Kinase Activity Measured by Time-Resolved Fluorescence Resonance Energy Transfer (trFRET)
Varying concentrations of inhibitor were added to an assay well containing: Jak3 enzyme (aa 811-1103; expressed in SF9 cells as a GST fusion and purified by glutathione affinity chromatography; 3 nM), peptide substrate (biotin-TYR2, Sequence: Biotin-(Ahx)-AEEEYFFLFA-amide; 2 μM), MOPSO pH 6.5 (50 mM), MgCl2 (10 mM), MnCl2 (2 mM), DTT (2.5 mM), BSA (0.01% w/v), Na3VO4 (0.1 mM) and ATP (0.001 mM). After about 60 min incubation at rt, the reaction was quenched by addition of EDTA (final concentration: 100 mM) and developed by addition of revelation reagents (final approximate concentrations: 30 mM HEPES pH 7.0, 0.06% BSA, 0.006% Tween-20, 0.24 M KF, 80 ng/mL PT66K (europium labeled anti-phosphotyrosine antibody cat #61T66KLB Cisbio, Bedford, Mass.) and 0.8 μg/mL SAXL (Phycolink streptavidin-allophycocyanin acceptor, cat #PJ52S, Prozyme, San Leandro, Calif.). The developed reaction was incubated in the dark either at about 4° C., for about 14 h or for about 60 min at rt, then read via a time-resolved fluorescence detector (Rubystar, BMG) using a 337 nm laser for excitation and emission wavelength of 665 nm. Within the linear range of the assay, the observed signal at 665 nm is directly related to phosphorylated product and used to calculate the IC50 values.

T1 sequence (P52333 811-1103): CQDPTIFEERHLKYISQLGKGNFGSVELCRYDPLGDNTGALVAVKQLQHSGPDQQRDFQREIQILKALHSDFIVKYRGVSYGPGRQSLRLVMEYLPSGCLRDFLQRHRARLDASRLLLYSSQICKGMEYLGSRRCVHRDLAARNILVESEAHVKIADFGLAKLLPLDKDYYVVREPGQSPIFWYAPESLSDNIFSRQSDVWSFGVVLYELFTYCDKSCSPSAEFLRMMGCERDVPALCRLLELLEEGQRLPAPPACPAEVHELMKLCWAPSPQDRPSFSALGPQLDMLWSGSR

Compound	IC50
CC[C@@H]1C[C@H](NC(=O)c2cnoc2C2CC2)C[C@@H]1c1nnc2cnc3[nH]ccc3n12 [compound 66, 5-cyclopropyl-N-((1S,3R,4S)-3-ethyl-4-(6H-pyrrolo[2,3-e][1,2,4]triazolo[4,3-a]pyrazin-1-yl)cyclopentyl)isoxazole-4-carboxamide]	1 to 10 µM
CC[C@@H]1C[C@H](NC(=O)CCC2CCC2)C[C@@H]1c1nnc2cnc3[nH]ccc3n12 [compound 67, 3-cyclobutyl-N-((1S,3R,4S)-3-ethyl-4-(6H-pyrrolo[2,3-e][1,2,4]triazolo[4,3-a]pyrazin-1-yl)cyclopentyl)propanamide]	1 to 10 µM
CC[C@@H]1C[C@H](NC(=O)CCc2ccc(C)o2)C[C@@H]1c1nnc2cnc3[nH]ccc3n12 [compound 69, N-((1S,3R,4S)-3-ethyl-4-(6H-pyrrolo[2,3-e][1,2,4]triazolo[4,3-a]pyrazin-1-yl)cyclopentyl)-3-(5-methylfuran-2-yl)propanamide]	1 to 10 µM
CC[C@@H]1C[C@H](NC(=O)CCC2CCCCC2=O)C[C@@H]1c1nnc2cnc3[nH]ccc3n12 (stereo partly drawn) [compound 70, N-((1S,3R,4S)-3-ethyl-4-(6H-pyrrolo[2,3-e][1,2,4]triazolo[4,3-a]pyrazin-1-yl)cyclopentyl)-3-(2-oxocyclohexyl)propanamide]	> 10 µM
CC[C@@H]1C[C@H](NC(=O)Cc2noc3ccccc23)C[C@@H]1c1nnc2cnc3[nH]ccc3n12 [compound 71, 2-(benzo[d]isoxazol-3-yl)-N-((1S,3R,4S)-3-ethyl-4-(6H-pyrrolo[2,3-e][1,2,4]triazolo[4,3-a]pyrazin-1-yl)cyclopentyl)acetamide]	1 to 10 µM

The remaining lines, values ahead:

IC50	Compound
1 to 10 µM	CC[C@@H]1C[C@H](NC(=O)c2cc(C3CC3)on2)C[C@@H]1c1nnc2cnc3[nH]ccc3n12 [compound 59, 5-cyclopropyl-N-((1S,3R,4S)-3-ethyl-4-(6H-pyrrolo[2,3-e][1,2,4]triazolo[4,3-a]pyrazin-1-yl)cyclopentyl)isoxazole-3-carboxamide]
1 to 10 µM	CC[C@@H]1C[C@H](NC(=O)/C=C/c2ccco2)C[C@@H]1c1nnc2cnc3[nH]ccc3n12 [compound 60, (E)-N-((1S,3R,4S)-3-ethyl-4-(6H-pyrrolo[2,3-e][1,2,4]triazolo[4,3-a]pyrazin-1-yl)cyclopentyl)-3-(furan-2-yl)acrylamide]
1 to 10 µM	CC[C@@H]1C[C@H](NC(=O)c2cc(C)no2)C[C@@H]1c1nnc2cnc3[nH]ccc3n12 [compound 62, N-((1S,3R,4S)-3-ethyl-4-(6H-pyrrolo[2,3-e][1,2,4]triazolo[4,3-a]pyrazin-1-yl)cyclopentyl)-3-methylisoxazole-5-carboxamide]
1 to 10 µM	CC[C@@H]1C[C@H](NC(=O)c2cocn2)C[C@@H]1c1nnc2cnc3[nH]ccc3n12 [compound 63, N-((1S,3R,4S)-3-ethyl-4-(6H-pyrrolo[2,3-e][1,2,4]triazolo[4,3-a]pyrazin-1-yl)cyclopentyl)oxazole-4-carboxamide]
1 to 10 µM	CC[C@@H]1C[C@H](NC(=O)c2ccc(CSC)o2)C[C@@H]1c1nnc2cnc3[nH]ccc3n12 [compound 64, N-((1S,3R,4S)-3-ethyl-4-(6H-pyrrolo[2,3-e][1,2,4]triazolo[4,3-a]pyrazin-1-yl)cyclopentyl)-5-(methylthiomethyl)furan-2-carboxamide]
1 to 10 µM	CC[C@@H]1C[C@H](NC(=O)c2cc(OC)no2)C[C@@H]1c1nnc2cnc3[nH]ccc3n12 [compound 65, N-((1S,3R,4S)-3-ethyl-4-(6H-pyrrolo[2,3-e][1,2,4]triazolo[4,3-a]pyrazin-1-yl)cyclopentyl)-3-methoxyisoxazole-5-carboxamide]
< 1 µM	CC[C@@H]1C[C@H](NC(=O)c2noc3ccccc23)C[C@@H]1c1nnc2cnc3[nH]ccc3n12 [compound 68, N-((1S,3R,4S)-3-ethyl-4-(6H-pyrrolo[2,3-e][1,2,4]triazolo[4,3-a]pyrazin-1-yl)cyclopentyl)benzo[d]isoxazole-3-carboxamide]
